From patent US20130029981A1, “COMPOUNDS, COMPOSITIONS, AND METHODS FOR CONTROLLING BIOFILMS” (Katholieke Universiteit Leuven, priority 2009, published 2013)
Read-outs that look alike come from different tables or passages of the source.

Experiments:
[1] = test system: Pseudomonas aeruginosa PA14; test: Static peg assay for prevention of biofilm formation (Calgary device, crystal violet); type: cell-based
Procedure: (§1) Evaluation of the biofilm inhibitory activity of some substituted 2-amino-1H-imidazoles of the invention was carried out by growing up biofilms of S. Typhimurium ATCC14028 or SL1344 or Pseudomonas aeruginosa PA14 in the presence of different concentrations (1/2 dilution series) of biofilm inhibitors, by using the Calgary biofilm device. After an incubation period of 24 hours at 25° C. or 37° C. or 48 hours at 16° C. the biofilms were visualized by crystal violet staining. In the next step the stain was extracted from the biofilm with 30% acetic acid. The absorbance of the resolubilized stain at 570 nm is a measure of the amount of biofilm formed.
The device used for Pseudomonas aeruginosa biofilm formation is the same platform carrying polystyrene pegs as described above for Salmonella Typhimurium.
Two-fold serial dilutions of the compounds in 100 μl liquid broth per well were prepared in the microtiter plate. Subsequently, an overnight culture of P. aeruginosa PA14 (grown up in TSB medium) was diluted 1:100 into liquid broth and 100 μl was added to each well of the microtiter plates, resulting in a total amount of 200 μl medium per well. The pegged lid was placed on the microtiter plate and the plate was incubated for 24 hours at 25° C., 30° C. or 37° C. without shaking. During this incubation period biofilms were formed on the surface of the pegs. The liquid broth used for the tests at 25° C. was TSB 1/20. The tests at 37° C. were performed in CFA and/or LBNS broth. During incubation at 30° C. and 37° C. the plates were placed in a humidity controlled container to prevent evaporation of the growth medium. Quantification of biofilm formation was performed similarly as described previously for the S. Typhimurium biofilm assays.
as §1, with “imidazo[1,2-a]pyrimidinium bromide salts” for “2-amino-1H-imidazoles”
as §1, with “substituted imidazo[1,2-a]-pyrimidinium bromide and perchlorate salts produced according to examples 3 and 5” for “substituted 2-amino-1H-imidazoles of the invention”, “C.” for “C. or 37° C. or 48 hours at 16° C.”, “nm was taken as” for “nm is”

S. Typhimurium ATCC14028 = test: as above; type: cell-based, Salmonella Typhimurium
Method in brief: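 Calgary 96-peg device, ca. 10^6 cells of ATCC14028 per well in TSB 1/20 for 24 h at 25° C (or 48 h at 16° C, medium and compound renewed at 24 h), or in CFA broth for 24 h at 37° C, static, with two-fold compound dilutions. Crystal violet stain, acetic acid extraction, OD570. IC50 from 2–3 independent experiments.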

[2] = 25° C., Table 16, read-out: P. aeruginosa IC50 (biofilm formation)
[3] = 25° C., Table 16, read-out: S. Typhimurium IC50 (biofilm formation)
[4] = P. aeruginosa PA14, 25° C., read-out: P. aeruginosa IC50 (biofilm formation)
[5] = S. Typhimurium ATCC 14028, 25° C., read-out: S. Typhimurium IC50 (biofilm formation)
[6] = 25° C., 24 hours, Table 15, read-out: (2) IC50 (biofilm inhibition)
[7] = 25° C., 24 hours, Table 15, read-out: (1) IC50 (biofilm inhibition)
[8] = Pseudomonas aeruginosa, PA14, 24 h, read-out: (2) IC50 (biofilm inhibition)
[9] = Salmonella enterica, 24 h, read-out: (1) IC50 (biofilm inhibition)
[10] = Table 21, P. aeruginosa PA14, 25° C., read-out: P. aeruginosa IC50 (biofilm formation)
[11] = Table 21, S. Typhimurium ATCC14028, 25° C., read-out: S. Typhimurium IC50 (biofilm formation)
[12] = 25° C., Table 17, read-out: P. aeruginosa IC50 (biofilm formation)
[13] = 25° C., Table 17, read-out: S. Typhimurium IC50 (biofilm formation)
[14] = 25° C., Table 18, read-out: P. aeruginosa IC50 (biofilm formation)
[15] = 25° C., Table 18, read-out: S. Typhimurium IC50 (biofilm formation)
[16] = S. Typhimurium ATCC 14028, 25° C., read-out: IC50 for biofilm inhibition (25° C.)

Compound | IC50 [1, 2] [µM] | IC50 (S. Typhimurium ATCC14028; [3]) [µM] | IC50 [1, 4] [µM] | IC50 (S. Typhimurium ATCC14028; [5]) [µM] | IC50 [1, 6] [µM] | IC50 (S. Typhimurium ATCC14028; [7]) [µM] | further results
CCCCN1c2nccc[n+]2CC1(O)c1ccc(Cl)cc1 (racemic) [Compound 16] | 24.9 | 29.7 | – | – | – | – | –
CCCCNc1ncc(-c2ccc(F)cc2)[nH]1 [Compound 98] | – | – | 10.8 | 15.5 | – | – | –
CCCCCCCCNc1ncc(-c2ccc(F)cc2)[nH]1 [Compound 100] | – | – | ~3.1 | > 400 | – | – | –
CCCCCCCCCN1c2nccc[n+]2CC1(O)c1ccccc1 (racemic) [Compound 9] | 55.7 | 8.3 | – | – | 4.85 | 8.26 | –
CCCCNc1ncc(-c2ccc(OC)cc2)[nH]1 [Compound 107] | – | – | 46.3 | 52.6 | – | – | –
CCCCCCCC[n+]1c(-c2ccc(Cl)c(Cl)c2)cn2cccnc21.[O-][Cl+3]([O-])([O-])[O-] [2-(3,4-Dichlorophenyl)-1-octylimidazo[1,2-a]pyrimidin-1-ium perchlorate] | – | – | – | – | – | – | IC50 [1, 8]: 12.7 µM; IC50 (S. Typhimurium ATCC14028; [9]): 3.84 µM
Nc1nc(-c2ccccc2)c[nH]1 [Compound 81] | – | – | 72.6 | 130 | – | – | –
CCCCCCCCN1c2nccc[n+]2C[C@@]1(O)c1cccc2ccccc12 [Compound 52] | – | – | – | – | – | – | IC50 ([1]; Pseudomonas aeruginosa, PA14, 25° C., Table 17, read-out: P. aeruginosa IC50 (biofilm formation)): 15.1 µM; IC50 ([1]; Pseudomonas aeruginosa, PA14, 24 h, 25° C., 24 hours, Table 15, read-out: (2) IC50 (biofilm inhibition)): 16.7 µM; IC50 (S. Typhimurium ATCC14028; Salmonella enterica, 25° C., 24 hours, Table 15, read-out: (1) IC50 (biofilm inhibition)): 14.7 µM; IC50 (S. Typhimurium ATCC14028; Salmonella enterica, 25° C., Table 17, read-out: S. Typhimurium IC50 (biofilm formation)): 14.7 µM
CSc1ccc(-c2cnc(NC3CCCCC3)[nH]2)cc1 [Compound 126] | – | – | – | – | – | – | IC50 [1, 10]: 15.8 µM; IC50 (S. Typhimurium ATCC14028; [11]): 191 µM
CCCCCCCCN1c2nccc[n+]2CC1(O)c1ccc(-c2ccc([N+](=O)[O-])cc2)cc1 (centres unmarked) [Compound 53] | – | – | – | – | 119 | 31 | IC50 [1, 12]: 215 µM; IC50 (S. Typhimurium ATCC14028; [13]): 31 µM
OC1(c2ccccc2)C[n+]2cccnc2N1C1CCC1 (centres unmarked) [Compound 57] | – | – | – | – | – | – | IC50 [1, 14]: > 400 µM; IC50 (S. Typhimurium ATCC14028; [15]): 493 µM
CC(C)(C)N1c2nccc[n+]2CC1(O)c1ccc([N+](=O)[O-])cc1 (centres unmarked) [Compound 33] | 41.5 | 211 | – | – | – | – | –
CCCCCCCCCN1c2nccc[n+]2CC1(O)c1ccc(Cl)cc1 (racemic) [Compound 22] | 21 | 18.3 | – | – | 60.5 | 18.3 | –
CCCCCCCCCCCCN1c2nccc[n+]2CC1(O)c1ccccc1 (racemic) [Compound 12] | > 800 | 27.5 | – | – | 9.63 | 27.5 | –
CCCCCCCN1c2nccc[n+]2CC1(O)c1ccccc1 (racemic) [Compound 7] | 24.8 | 23.4 | – | – | 5.89 | 23.4 | –
CCCCCCCCNc1ncc(-c2ccc(Cl)c(Cl)c2)[nH]1 [Compound 111] | – | – | > 800 | 118 | – | – | –
CCCCCCCCN1c2nccc[n+]2CC1(O)c1ccc(S(C)(=O)=O)cc1 (centres unmarked) [Compound 54] | – | – | – | – | 11.5 | 60.3 | IC50 [1, 12]: 99.9 µM; IC50 (S. Typhimurium ATCC14028; [13]): 60.3 µM
CCCCCCN1c2nccc[n+]2CC1(O)c1ccccc1 (racemic) [Compound 6] | 406 | 102 | – | – | 3.13 | 102 | –
CCCCNc1nc(-c2ccccc2)c[nH]1 [Compound 83] | – | – | 31.8 | 25.3 | – | – | –
CCCCCCCCNc1ncc(-c2ccc([N+](=O)[O-])cc2)[nH]1 [Compound 95] | – | – | ~25 | 10.9 | – | – | –
CCCCCCCCCCN1c2nccc[n+]2CC1(O)c1ccc(Cl)cc1 (racemic) [Compound 23] | 66.4 | 51.3 | – | – | 193 | 51.3 | –

Compound | IC50 [1, 2] [µM] | IC50 (S. Typhimurium ATCC14028; [3]) [µM] | IC50 [1, 4] [µM] | IC50 (S. Typhimurium ATCC14028; [5]) [µM] | IC50 [1, 6] [µM] | IC50 (S. Typhimurium ATCC14028; [7]) [µM] | further results
CCCCCCCC[n+]1c(-c2ccc(-c3ccc([N+](=O)[O-])cc3)cc2)cn2cccnc21.[O-][Cl+3]([O-])([O-])[O-] [1-octyl-2-(4′-nitro[1,1-biphenylyl]-4-yl)-imidazo[1,2-a]pyrimidin-1-ium perchlorate] | – | – | – | – | 1.04 | 1.49 | –
CCCCNc1nc(-c2ccc(F)cc2)c[nH]1 [R1=H, R2=Butyl, R3=H, R4=p-F—Ph] | – | – | – | – | – | – | IC50 ([1]; P. aeruginosa PA14, 25° C., read-out: IC50 for biofilm inhibition (25° C.)): 6 µM; IC50 (S. Typhimurium ATCC14028; [16]): 16 µM
CCCCCCCN1c2nccc[n+]2CC1(O)c1ccc(Cl)cc1 (racemic) [Compound 20] | 36.9 | 6.7 | – | – | ~12.5 | 6.67 | –
CCCCCCCCCCCCCN1c2nccc[n+]2CC1(O)c1ccc(Cl)cc1 (racemic) [Compound 26] | > 800 | 316 | – | – | 59 | 316 | –
Brc1ccc(-c2cnc(NC3CCCC3)[nH]2)cc1 [Compound 120] | – | – | – | – | – | – | IC50 [1, 10]: 7.2 µM; IC50 (S. Typhimurium ATCC14028; [11]): 12.1 µM
CCCCCCCCNc1ncc(-c2ccc(S(C)(=O)=O)cc2)[nH]1 [Compound 116] | – | – | ~3.1 | 41.8 | – | – | –
CC(C)CNc1ncc(-c2ccc([N+](=O)[O-])cc2)[nH]1 [Compound 94] | – | – | 22.9 | 3.8 | – | – | –
CC(C)CNc1nc(-c2ccc(Cl)cc2)c[nH]1 [Compound 86] | – | – | 0.9 | 2 | – | – | –
Fc1ccc(-c2cnc(NCc3ccc4c(c3)OCO4)[nH]2)cc1 [Compound 132] | – | – | – | – | – | – | IC50 ([1]; 25° C., Table 22, read-out: P. aeruginosa IC50 (biofilm formation)): 456 µM; IC50 (S. Typhimurium ATCC14028; 25° C., Table 22, read-out: S. Typhimurium IC50 (biofilm formation)): 66.6 µM; IC50 (S. Typhimurium ATCC14028; [16]): 68 µM
Clc1ccc(-c2cnc(NC3CCCC3)[nH]2)cc1Cl [Compound 121] | – | – | – | – | – | – | IC50 [1, 10]: 7.9 µM; IC50 (S. Typhimurium ATCC14028; [11]): 5.7 µM
CC(C)CN1c2nccc[n+]2CC1(O)c1ccc([N+](=O)[O-])cc1 (centres unmarked) [Compound 32] | 192 | 322 | – | – | – | – | –
CCCCCCCCN1c2nccc[n+]2CC1(O)c1ccc(F)cc1 (centres unmarked) [Compound 39] | 108 | 7.6 | – | – | 7.12 | 7.58 | –
CCCCCCCCNc1ncc(-c2ccc(OC)cc2)[nH]1 [Compound 108] | – | – | > 800 | ~400 | – | – | –
COc1ccc(-c2cnc(N)[nH]2)cc1 [Compound 106] | – | – | 186 | 120 | – | – | –
CCCCCCCCCCCCN1c2nccc[n+]2CC1(O)c1ccc(Cl)cc1 (racemic) [Compound 25] | > 800 | 122 | – | – | 119 | 122 | –
CCCCCCCCNc1ncc(-c2ccc(Br)cc2)[nH]1 [Compound 105] | – | – | > 800 | 1.9 | – | – | –
CCCCCCCCCCCCCN1c2nccc[n+]2CC1(O)c1ccccc1 (racemic) [Compound 13] | > 800 | 81.6 | – | – | 17 | 81.6 | –
OC1(c2ccc(Cl)cc2)C[n+]2cccnc2N1C1CCCCCCC1 (centres unmarked) [Compound 66] | – | – | – | – | 15.6 | 12.6 | IC50 [1, 14]: 22.7 µM; IC50 (S. Typhimurium ATCC14028; [15]): 12.6 µM
CCCCCCCC[n+]1c(-c2cccc(Br)c2)cn2cccnc21.[O-][Cl+3]([O-])([O-])[O-] [2-(3-Bromophenyl)-1-octylimidazo[1,2-a]pyrimidin-1-ium perchlorate] | – | – | – | – | – | – | IC50 [1, 8]: 7 µM; IC50 (S. Typhimurium ATCC14028; [9]): 7.33 µM
CNc1ncc(-c2ccc(F)cc2)[nH]1 [Compound 97] | – | – | 25.2 | 102 | – | – | –
